Source: patent US12478602B2, “Method for treating a disorder” (priority 2023, dated 2025)

Legend:
[1] = test system: mice having autism spectrum disorder; assay: Social cognition experiment in mouse model of autism spectrum disorder; type: in vivo; conditions: 500 mg/kg orally once a day for 2 weeks from age 3 weeks
From the text: Pregnant C57BL/6 mice were subcutaneously injected with valproic acid (VPA) at the time when the gestation period reached 12 days. Male mice were selected from the mice that were born from the pregnant mice that were subcutaneously injected with VPA, and these were used as animals for a mouse model of autism spectrum disorder.
Since 3-week-old mice are at the critical stage, 3-week-old normal mice and 3-week-old mice having autism spectrum disorder were subjected to a sociality experiment, a social cognition experiment, and an anxiety experiment to identify the underlying features. 500 mg/kg of L-serine (hereinafter, referred to as AST-001) was orally administered for 2 weeks to mice having autism spectrum disorder, in which the underlying features had been confirmed. The mice having autism spectrum disorder, to which AST-001 had been orally administered for 2 weeks, were again subjected to a sociality experiment, a social cognition experiment, and an anxiety experiment.
A social cognition experiment, which measures whether or not an experimental mouse moves in the direction of a non-familiar mouse in a case where the experimental mouse is placed between a non-familiar mouse and a familiar mouse, was carried out (see FIG. 1B). […]

[2] = test system: mice having autism spectrum disorder; assay: Spatial memory experiment (Y-maze test); type: in vivo, mouse; conditions: 180, 300, 480 or 600 mg/kg orally for 28 days; with increasing dosage
Protocol: Mice having autism spectrum disorder were created by the same method as in Example 1.1. The 3-week-old male mice having autism spectrum disorder were orally injected with 180, 300, 480, or 600 mg/kg of L-serine for 28 days and then subjected to a spatial memory test. Normal mice were used as a control group. Eight mice were used for each experimental group. The spatial working memory of the mice was evaluated through the Y-maze test. As the administration dosage of L-serine increased, the value of spontaneous alteration, which is a measure of spatial memory, increased (see FIG. 7).

mPFC pyramidal neurons = assay: Patch clamp of intrinsic excitability in BTBR mice; type: in vivo, mouse; conditions: 500 mg/kg orally for 2 weeks
Protocol: BTBR T+tf/J (BTBR), which is an animal of autism spectrum disorder, and C57BL/6 mice (used as a control group) were purchased from Jackson Laboratories. […] However, in a case where BTBR mice were orally administered with 500 mg/kg of AST-001 for 2 weeks, and then the firing rate of the action potential was measured, the firing rate of the action potential in the BTBR mice and the control group mice turned out to be similar (see FIG. 5B).

healthy adults = assay: Safety evaluation in healthy adults; type: in vivo, human; conditions: single oral up to 30 g per day; 15 g twice a day for 7 days
Protocol: 24 hours before the administration with AST-001 (main component: L-serine), blood was collected to measure the concentration of L-serine. 60 g of an AST-001 powder is a white homogeneous powder without having foreign substances, divided and repackaged into an HDPE bottle or a bottle made of the same material, and the composition of this drug is such that 1,000 mg of the main component L-serine is comprised per 1,000 mg dose. […] As a result, it was confirmed that AST-001 can be safely administered within a dose range of 10 to 30 g per day for indications that require repeated administration. The results of the pharmacokinetic analysis in the AST-001 repeated administration test in healthy adult males are as shown in Table 2 below.

[3] = test system: children having autism spectrum disorder; assay: Phase 2 clinical trial, effectiveness; type: in vivo, human; conditions: high-dose short-term administration group, 24 weeks vs 12 weeks
Protocol: 151 children having autism spectrum disorder were subjected to a multicentered, randomly assigned, double-blinded, placebo-controlled, and therapeutically exploratory phase 2 clinical trial for exploring the effectiveness and evaluating the safety of an AST-001 syrup. An AST-001 syrup used in a clinical trial is a colorless or pale yellow clear syrup which is aromatic and has sweetness, and it comprises, as a main ingredient, 10 g of L-serine in about 100 mL of this drug and is packaged in aluminum foil at a dosage of 2 g/20 mL. The composition of the AST-001 syrup is such that the AST-001 syrup comprises L-serine as a main ingredient, sodium carboxymethyl cellulose as a thickener, methyl paraoxybenzoate and propyl paraoxybenzoate as preservatives, a citric acid hydrate and a potassium citrate hydrate as pH adjusting agents, white sugar and a D-sorbitol solution as sweetening agents, an apple mint flavor SJ-G (22005221) as a fragrance imparting agent, and purified water. […] After the extension study period of 12 weeks ended, the effectiveness and adverse events in patients were followed up and monitored for 12 weeks (that is, follow-up period). […] The K-VABS-II Adaptive Behavior Composite (K-VABS-II ABC) score, which is a primary evaluation variable, is a calculated score (standard score) for the main domain, where the higher score means the higher level of adaptive behavior.

With `N[C@@H](CO)C(=O)O` [AST-001, L-serine] the “interaction time with the non-familiar mouse vs interaction time with the familiar mouse” value [1] was “significantly higher”, the “preference index for the non-familiar mouse” value [1] was “high” and the spontaneous alteration [2] was “increased”. The “firing rate of the action potential, BTBR mice vs control group mice” value (mPFC pyramidal neurons) was “similar”, the “safety and drug tolerance” value (healthy adults) was “excellent safety and drug tolerance” and the “amount of score change in the K-VABS-II ABC and the main domain, 2DC and CGI-S” value [3] was “significantly improves”.
